# Several values for one entry are separate records, joined by “and”; a condition that tells them apart may be missing. Equal values may be shown once.
# What was measured:
# C57BL/6J mice = assay: Mouse head twitch response (HTR); assay type: in vivo; conditions: for Head Twitch 10 mins, AVG / Head Twitch 20 mins, AVG / Head Twitch 30 mins, AVG / Head Twitch 40 mins, AVG / Head Twitch 50 mins, AVG / Head Twitch 60 mins, AVG / Head Twitch Total, AVG: group mean; for Head Twitch Total, AVG: over 1 h
# Method: Data is expressed as mean±SEM. The induction of head twitches elicited by 5-HT2A receptor agonists is believed to represent a behavioural proxy of their psychedelic effects.
# The effect of different doses of exemplary compounds of Formula I were evaluated on head-twitch response (HTR) as a behavior-based model of psychedelic activity.
# Male, C57BL/6J mice (body weight range 20-30 g) were dosed with the appropriate dose of test article, and following a 1-minute pre-treatment time, placed in individual observation chambers. Animals were visually assessed for the incidence head twitches continuously over a 1 hr period. Head twitches were defined as a rapid jerk of the head which was not elicited by an external tactile stimulus (Corne and Pickering, Psychopharmacologia, 1967, 11(1): 65-78). Each head twitch was individually counted by a trained observer, and the data expressed as the mean+SEM of 6-10 mice per group. Mice were used in a single experiment only.
# [1] = Rat liver microsomes stability with NADPH
# [2] = Mouse liver microsomes stability with NADPH
# Method: The objective of this study was to estimate in vitro metabolic stability of 1-45 in pooled human and male mouse liver microsomes. The concentrations of exemplary compounds in reaction systems were evaluated by LC-MS/MS for estimating the stability in pooled human and male mouse liver microsomes. The in vitro intrinsic clearances of test compounds were determined as well.
# A master solution in the “Incubation Plate” containing phosphate buffer, ultra-pure H2O, MgCl2 solution and liver microsomes was made according to Table --. The mixture was pre-warmed at 37° C. water bath for 5 minutes.
# 40 μL of 10 mM NADPH solution was added to each well. The final concentration of NADPH was 1 mM. The negative control samples were prepared by replacing NADPH with 40 μL of ultra-pure H2O. Samples were prepared in duplicate. Negative controls were prepared in singlet.
# The reaction was started with the addition of 4 μL of 200 μM test compounds or control compounds to each master solution to get the final concentration of 2 μM. This study was performed in duplicate.
# Aliquots of 50 μL were taken from the reaction solution at 0, 15, 30, 45 and 60 minutes. The reaction solutions were stopped by the addition of 4 volumes of cold methanol with IS (100 nM alprazolam, 200 nM imipramine, 200 nM labetalol and 2 μM ketoprofen). Samples were centrifuged at 3,220 g for 40 minutes. Aliquot of 90 μL of the supernatant was mixed with 90 μL of ultra-pure H2O and then was used for LC-MS/MS analysis.
# LC/MS analysis was performed for all samples from this study using a Shimadzu liquid chromatograph separation system equipped with degasser DGU-20A5R; solvent delivery unit LC-30AD; system controller SIL-30AC; column oven CTO-30A; CTC Analytics HTC PAL System. Mass spectrometric analysis was performed using an Triple Quad™ 5500 instrument.
# All calculations were carried out using Microsoft Excel. Peak area ratios of test compound to internal standard (listed in the below table) were determined from extracted ion chromatograms.
# All calculations were carried out using Microsoft Excel. Peak areas were determined from extracted ion chromatograms. The slope value, k, was determined by linear regression of the natural logarithm of the remaining percentage of the parent drug vs. incubation time curve.
# Conversion of the in vitro t1/2 (min) into the in vitro intrinsic clearance (in vitro CLint, in μL/min/mg proteins) was done using the following equation (mean of duplicate determinations):
# [formula] […] Results & Discussion
compound,measurement,setting,value
"[2H]C([2H])([2H])N(C([2H])([2H])[2H])C([2H])([2H])C([2H])([2H])c1c[nH]c2cccc(O)c12 [Compound I-45, 3-(2-(bis(methyl-d3)amino)ethyl-1,1,2,2-d4)-1H-indol-4-ol]","Head Twitch 10 mins, individual animal","C57BL/6J mice; 0.03 mg/kg SC, animals C1-C6",0 (2×) and 1 and 3 and 2 (2×)
same,"Head Twitch 20 mins, individual animal","C57BL/6J mice; 0.03 mg/kg SC, animals C1-C6",0 (5×) and 1
same,"Head Twitch 30 mins, individual animal","C57BL/6J mice; 0.03 mg/kg SC, animals C1-C6",0
same,"Head Twitch 40 mins, individual animal","C57BL/6J mice; 0.03 mg/kg SC, animals C1-C6",0
same,"Head Twitch 50 mins, individual animal","C57BL/6J mice; 0.03 mg/kg SC, animals C1-C6",0 (5×) and 1
same,"Head Twitch 60 mins, individual animal","C57BL/6J mice; 0.03 mg/kg SC, animals C1-C6",0
same,"Head Twitch Total, individual animal","C57BL/6J mice; 0.03 mg/kg SC, animals C1-C6, over 1 h",0 and 1 (2×) and 4 and 2 (2×)
same,"Head Twitch 10 mins, AVG",C57BL/6J mice; 0.03 mg/kg SC,1.3
same,"Head Twitch 20 mins, AVG",C57BL/6J mice; 0.03 mg/kg SC,0.2
same,"Head Twitch 30 mins, AVG",C57BL/6J mice; 0.03 mg/kg SC,0.0
same,"Head Twitch 40 mins, AVG",C57BL/6J mice; 0.03 mg/kg SC,0.0
same,"Head Twitch 50 mins, AVG",C57BL/6J mice; 0.03 mg/kg SC,0.2
same,"Head Twitch 60 mins, AVG",C57BL/6J mice; 0.03 mg/kg SC,0.0
same,"Head Twitch Total, AVG",C57BL/6J mice; 0.03 mg/kg SC,1.7
same,"Head Twitch 10 mins, individual animal","C57BL/6J mice; 0.1 mg/kg SC, animals P1-P10",3 and 6 and 0 (3×) and 1 (3×) and 2 (2×)
same,"Head Twitch 20 mins, individual animal","C57BL/6J mice; 0.1 mg/kg SC, animals P1-P10",1 (4×) and 0 (4×) and 2 (2×)
same,"Head Twitch 30 mins, individual animal","C57BL/6J mice; 0.1 mg/kg SC, animals P1-P10",0 (6×) and 1 (4×)
same,"Head Twitch 40 mins, individual animal","C57BL/6J mice; 0.1 mg/kg SC, animals P1-P10",1 (2×) and 0 (8×)
same,"Head Twitch 50 mins, individual animal","C57BL/6J mice; 0.1 mg/kg SC, animals P1-P10",0 (7×) and 2 and 1 (2×)
same,"Head Twitch 60 mins, individual animal","C57BL/6J mice; 0.1 mg/kg SC, animals P1-P10",0
same,"Head Twitch Total, individual animal","C57BL/6J mice; 0.1 mg/kg SC, animals P1-P10, over 1 h",5 and 9 and 3 (3×) and 2 (3×) and 1 and 4
same,"Head Twitch 10 mins, AVG",C57BL/6J mice; 0.1 mg/kg SC,1.6
same,"Head Twitch 20 mins, AVG",C57BL/6J mice; 0.1 mg/kg SC,0.8
same,"Head Twitch 30 mins, AVG",C57BL/6J mice; 0.1 mg/kg SC,0.4
same,"Head Twitch 40 mins, AVG",C57BL/6J mice; 0.1 mg/kg SC,0.2
same,"Head Twitch 50 mins, AVG",C57BL/6J mice; 0.1 mg/kg SC,0.4
same,"Head Twitch 60 mins, AVG",C57BL/6J mice; 0.1 mg/kg SC,0.0
same,"Head Twitch Total, AVG",C57BL/6J mice; 0.1 mg/kg SC,3.4
same,"Head Twitch 10 mins, individual animal","C57BL/6J mice; 0.3 mg/kg SC, animals Q1-Q10",3 and 1 (4×) and 0 (2×) and 2 (3×)
same,"Head Twitch 20 mins, individual animal","C57BL/6J mice; 0.3 mg/kg SC, animals Q1-Q10",0 (4×) and 1 (6×)
same,"Head Twitch 30 mins, individual animal","C57BL/6J mice; 0.3 mg/kg SC, animals Q1-Q10",1 (3×) and 0 (6×) and 3
same,"Head Twitch 40 mins, individual animal","C57BL/6J mice; 0.3 mg/kg SC, animals Q1-Q10",0 (8×) and 1 and 2
same,"Head Twitch 50 mins, individual animal","C57BL/6J mice; 0.3 mg/kg SC, animals Q1-Q10",0 (8×) and 1 (2×)
same,"Head Twitch 60 mins, individual animal","C57BL/6J mice; 0.3 mg/kg SC, animals Q1-Q10",0
same,"Head Twitch Total, individual animal","C57BL/6J mice; 0.3 mg/kg SC, animals Q1-Q10, over 1 h",4 (4×) and 2 (2×) and 1 and 3 and 6 and 0
same,"Head Twitch 10 mins, AVG",C57BL/6J mice; 0.3 mg/kg SC,1.3
same,"Head Twitch 20 mins, AVG",C57BL/6J mice; 0.3 mg/kg SC,0.6
same,"Head Twitch 30 mins, AVG",C57BL/6J mice; 0.3 mg/kg SC,0.6
same,"Head Twitch 40 mins, AVG",C57BL/6J mice; 0.3 mg/kg SC,0.3
same,"Head Twitch 50 mins, AVG",C57BL/6J mice; 0.3 mg/kg SC,0.2
same,"Head Twitch 60 mins, AVG",C57BL/6J mice; 0.3 mg/kg SC,0.0
same,"Head Twitch Total, AVG",C57BL/6J mice; 0.3 mg/kg SC,3.0
same,"Head Twitch 10 mins, individual animal","C57BL/6J mice; 1 mg/kg SC, animals R1-R6",0 and 4 and 1 and 3 (3×)
same,"Head Twitch 20 mins, individual animal","C57BL/6J mice; 1 mg/kg SC, animals R1-R6",0 (2×) and 2 and 1 and 7 and 8
same,"Head Twitch 30 mins, individual animal","C57BL/6J mice; 1 mg/kg SC, animals R1-R6",1 (2×) and 0 (3×) and 3
same,"Head Twitch 40 mins, individual animal","C57BL/6J mice; 1 mg/kg SC, animals R1-R6",0 (4×) and 2 (2×)
same,"Head Twitch 50 mins, individual animal","C57BL/6J mice; 1 mg/kg SC, animals R1-R6",0
same,"Head Twitch 60 mins, individual animal","C57BL/6J mice; 1 mg/kg SC, animals R1-R6",0
same,"Head Twitch Total, individual animal","C57BL/6J mice; 1 mg/kg SC, animals R1-R6, over 1 h",1 and 6 and 2 and 3 and 15 and 14
same,"Head Twitch 10 mins, AVG",C57BL/6J mice; 1 mg/kg SC,2.3
same,"Head Twitch 20 mins, AVG",C57BL/6J mice; 1 mg/kg SC,3.0
same,"Head Twitch 30 mins, AVG",C57BL/6J mice; 1 mg/kg SC,0.8
same,"Head Twitch 40 mins, AVG",C57BL/6J mice; 1 mg/kg SC,0.7
same,"Head Twitch 50 mins, AVG",C57BL/6J mice; 1 mg/kg SC,0.0
same,"Head Twitch 60 mins, AVG",C57BL/6J mice; 1 mg/kg SC,0.0
same,"Head Twitch Total, AVG",C57BL/6J mice; 1 mg/kg SC,6.8
same,"Head Twitch 10 mins, individual animal","C57BL/6J mice; 3 mg/kg SC, animals S1-S6",1 (2×) and 3 and 2 and 6 and 0
same,"Head Twitch 20 mins, individual animal","C57BL/6J mice; 3 mg/kg SC, animals S1-S6",2 (2×) and 1 and 0 and 3 and 5
same,"Head Twitch 30 mins, individual animal","C57BL/6J mice; 3 mg/kg SC, animals S1-S6",2 (2×) and 1 (3×) and 0
same,"Head Twitch 40 mins, individual animal","C57BL/6J mice; 3 mg/kg SC, animals S1-S6",2 and 0 (4×) and 3
same,"Head Twitch 50 mins, individual animal","C57BL/6J mice; 3 mg/kg SC, animals S1-S6",1 (2×) and 0 (4×)
same,"Head Twitch 60 mins, individual animal","C57BL/6J mice; 3 mg/kg SC, animals S1-S6",0 (5×) and 1
same,"Head Twitch Total, individual animal","C57BL/6J mice; 3 mg/kg SC, animals S1-S6, over 1 h",8 and 5 and 3 and 4 and 14 and 7
same,"Head Twitch 10 mins, AVG",C57BL/6J mice; 3 mg/kg SC,2.2
same,"Head Twitch 20 mins, AVG",C57BL/6J mice; 3 mg/kg SC,2.2
same,"Head Twitch 30 mins, AVG",C57BL/6J mice; 3 mg/kg SC,1.2
same,"Head Twitch 40 mins, AVG",C57BL/6J mice; 3 mg/kg SC,0.8
same,"Head Twitch 50 mins, AVG",C57BL/6J mice; 3 mg/kg SC,0.3
same,"Head Twitch 60 mins, AVG",C57BL/6J mice; 3 mg/kg SC,0.2
same,"Head Twitch Total, AVG",C57BL/6J mice; 3 mg/kg SC,6.8
same,"Head Twitch 10 mins, individual animal","C57BL/6J mice; 10 mg/kg SC, animals T1-T6",3 and 1 (2×) and 0 (3×)
same,"Head Twitch 20 mins, individual animal","C57BL/6J mice; 10 mg/kg SC, animals T1-T6",1 (2×) and 0 (4×)
same,"Head Twitch 30 mins, individual animal","C57BL/6J mice; 10 mg/kg SC, animals T1-T6",0
same,"Head Twitch 40 mins, individual animal","C57BL/6J mice; 10 mg/kg SC, animals T1-T6",0 (4×) and 1 (2×)
same,"Head Twitch 50 mins, individual animal","C57BL/6J mice; 10 mg/kg SC, animals T1-T6",0
same,"Head Twitch 60 mins, individual animal","C57BL/6J mice; 10 mg/kg SC, animals T1-T6",0 (5×) and 3
same,"Head Twitch Total, individual animal","C57BL/6J mice; 10 mg/kg SC, animals T1-T6, over 1 h",4 and 2 and 5 and 0 (2×) and 1
same,"Head Twitch 10 mins, AVG",C57BL/6J mice; 10 mg/kg SC,0.8
same,"Head Twitch 20 mins, AVG",C57BL/6J mice; 10 mg/kg SC,0.3
same,"Head Twitch 30 mins, AVG",C57BL/6J mice; 10 mg/kg SC,0.0
same,"Head Twitch 40 mins, AVG",C57BL/6J mice; 10 mg/kg SC,0.3
same,"Head Twitch 50 mins, AVG",C57BL/6J mice; 10 mg/kg SC,0.0
same,"Head Twitch 60 mins, AVG",C57BL/6J mice; 10 mg/kg SC,0.5
same,"Head Twitch Total, AVG",C57BL/6J mice; 10 mg/kg SC,2.0
same,head twitch frequency compared to vehicle control,"C57BL/6J mice; 0.3-10 mg/kg SC, measured over 1 h",dose dependent increase
same,Remaining Percentage (%) after 60 min,"[1]; Rat, with NADPH, 2 μM",3.34%
same,half-life at 2 μM,"[1]; rat, microsomes",12.2 min
same,microsomal CLint at 2 μM,"[1]; rat, microsomes",113 µL/min/mg
same,Remaining Percentage (%) after 60 min,"[2]; Mouse, with NADPH, 2 μM",64.91%
same,half-life at 2 μM,"[2]; male, mouse, microsomes",96.2 min
same,microsomal CLint at 2 μM,"[2]; male, mouse, microsomes",14.4 µL/min/mg

# From patent publication US11427604B2 (Mindset Pharma Inc., priority 2020, dated 2022)
